Assay results taken from patent US20240158446A1, “CYCLIC COMPOUND HAVING SELECTIVE INHIBITORY ACTION ON KRAS OVER HRAS AND NRAS” (CHUGAI SEIYAKU KABUSHIKI KAISHA, priority 2021, published 2024).
Where two headings read alike, the source gives them in different places.

Columns and labels:
[1] = target: GDP-bound KRAS wild-type protein (Homo sapiens, UniProt P01116); test: Binding to KRAS by surface plasmon resonance (SPR), Single Cycle Kinetics
[2] = target: GDP-bound NRAS wild-type protein (Homo sapiens, UniProt P01111); test: Binding to NRAS by surface plasmon resonance (SPR), Single Cycle Kinetics; details: for NRAS/KRAS (ratio of KD value with respect to GDP-bound NRAS wild-type protein to KD value with respect to KRAS): SPR KD ratio NRAS/KRAS, class symbols; for NRAS/KRAS (ratio of KD value for NRAS to KD value for KRAS): GDP-bound NRAS wild-type protein vs GDP-bound KRAS wild-type protein
Chain of GDP-bound NRAS wild-type protein (P01111 whole entry): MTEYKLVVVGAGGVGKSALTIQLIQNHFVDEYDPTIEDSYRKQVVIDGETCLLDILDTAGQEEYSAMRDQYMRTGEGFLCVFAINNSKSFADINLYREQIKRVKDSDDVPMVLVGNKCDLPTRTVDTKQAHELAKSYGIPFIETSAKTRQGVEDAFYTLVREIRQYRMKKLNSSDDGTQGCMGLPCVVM

[3] = target: GDP-bound HRAS wild-type protein (Homo sapiens, UniProt P01112); test: Binding to HRAS by surface plasmon resonance (SPR), Single Cycle Kinetics; details: for HRAS/KRAS (ratio of KD value with respect to GDP-bound HRAS wild-type protein to KD value with respect to KRAS): SPR KD ratio HRAS/KRAS, class symbols; for HRAS/KRAS (ratio of KD value for HRAS to KD value for KRAS): GDP-bound HRAS wild-type protein vs GDP-bound KRAS wild-type protein
Chain of GDP-bound HRAS wild-type protein (P01112 whole entry): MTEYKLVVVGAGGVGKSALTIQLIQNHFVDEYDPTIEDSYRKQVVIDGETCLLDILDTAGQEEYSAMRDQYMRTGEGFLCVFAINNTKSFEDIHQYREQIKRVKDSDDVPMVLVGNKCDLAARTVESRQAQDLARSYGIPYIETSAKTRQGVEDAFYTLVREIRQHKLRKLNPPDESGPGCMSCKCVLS

[4] = test system: human lung cancer strain NCI-H441;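 further: cell proliferation inhibition after four days measured by CellTiter-Glo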
[5] = SPR Single Cycle Kinetics, GDP-bound KRAS wild-type protein, 1:1 binding model, read-out: KRAS KD
[6] = SPR, Single Cycle Kinetics, GDP-bound KRAS wild-type protein, read-out: KRAS KD
[7] = SPR, Single Cycle Kinetics, 1:1 binding model, GDP-bound KRAS wild-type protein, read-out: KRAS KD

Chain of GDP-bound KRAS wild-type protein (P01116 whole entry): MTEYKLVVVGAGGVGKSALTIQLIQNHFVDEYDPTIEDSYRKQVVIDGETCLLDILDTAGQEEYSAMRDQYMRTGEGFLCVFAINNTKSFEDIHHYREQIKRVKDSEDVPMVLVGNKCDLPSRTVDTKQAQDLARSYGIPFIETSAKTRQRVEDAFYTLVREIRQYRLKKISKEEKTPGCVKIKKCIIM

Row | IC50 [4] [nM] | Kd [1, 6] [nM] | Kd [1, 7] [nM] | Structure (SMILES) | NRAS/KRAS (ratio of KD value for NRAS to KD value for KRAS) ([2]; SPR) | HRAS/KRAS (ratio of KD value for HRAS to KD value for KRAS) ([3]; SPR) | NRAS/KRAS (ratio of KD value for NRAS to KD value for KRAS) ([2]; SPR, KD ratio class) | HRAS/KRAS (ratio of KD value for HRAS to KD value for KRAS) ([3]; SPR, KD ratio class) | further results
1 | 5.7 | 0.32 |  | CCCOC[C@H]1C(=O)N[C@@H]([C@@H](C)CC)C(=O)N(C)CC(=O)N(C)[C@H]2C/C=C\CCN(C2=O)[C@@H](CC2CCC(F)(F)CC2)C(=O)N(C)CC(=O)N[C@@H](CCc2ccc(C(F)(F)F)c(OC)c2)C(=O)N2C[C@@H](C)C[C@H]2C(=O)N(C)C2(CCC2)C(=O)N(C)[C@@H](C2CCCC2)C(=O)N(C)[C@H](C(=O)N(C)C)CC(=O)N1C [PP2377] | A (a compound having 10 or more and less than 20 is denoted as A) | A (a compound having 10 or more and less than 20 is denoted as A) |  |  | 
2 | 6.5 | 0.11 |  | CCCOC[C@H]1C(=O)N[C@@H]([C@@H](C)CC)C(=O)N(C)CC(=O)N(C)[C@H]2C/C=C\CCN(C2=O)[C@@H](Cc2ccc(C)cc2)C(=O)N(C)CC(=O)N[C@@H](CCc2ccc(C(F)(F)F)c(OC)c2)C(=O)N2C[C@H](OCC)C[C@H]2C(=O)NC2(CC(C)(C)C2)C(=O)N(C)[C@@H](C2CCCC2)C(=O)N(C)[C@H](C(=O)N(C)CC)CC(=O)N1C [PP2463] | A (a compound having 10 or more and less than 20 is denoted as A) | A (a compound having 10 or more and less than 20 is denoted as A) |  |  | 
3 | 67.9 |  |  | CC[C@H](C)[C@@H]1NC(=O)[C@H](COC)N(C)C(=O)C[C@@H](C(=O)N(C)C)N(C)C(=O)[C@H](C2CCCC2)N(C)C(=O)C2(CC(C)(C)C2)NC(=O)[C@@H]2C[C@@H](OC3CCCC3)CN2C(=O)[C@H](CCc2ccc(Cl)c(Cl)c2)NC(=O)CN(C)C(=O)[C@H](Cc2ccc(C)cc2)N2CC/C=C\C[C@@H](C2=O)N(C)C(=O)CN(C2CC2)C1=O [PP2628] |  |  |  |  | Kd [1, 5]: 0.9 nM; NRAS/KRAS (ratio of KD value with respect to GDP-bound NRAS wild-type protein to KD value with respect to KRAS) [2]: A (a compound having 10 or more and less than 20 is denoted as A); HRAS/KRAS (ratio of KD value with respect to GDP-bound HRAS wild-type protein to KD value with respect to KRAS) [3]: A (a compound having 10 or more and less than 20 is denoted as A)
4 | 16.5 |  | 0.12 | CC[C@H](C)[C@@H]1NC(=O)[C@H](CC)N(C)C(=O)C[C@@H](C(=O)N(C)C)N(C)C(=O)[C@H](C2CCCC2)N(C)C(=O)C2(CCCC2)NC(=O)[C@@H]2CCCN2C(=O)[C@H](CCc2cc(F)c(C(F)(F)F)c(F)c2)NC(=O)CN(C)C(=O)[C@H](Cc2ccc(C(F)(F)F)cc2)N2CC/C=C\C[C@@H](C2=O)N(C)C(=O)CN(C)C1=O [PP1273, (2S,8S,14S,20S,23S,27S,30S,36S,38Z)-20-cyclopentyl-8-[2-[3,5-difluoro-4-(trifluoromethyl)phenyl]ethyl]-27-ethyl-N,N,4,19,22,26,32,35-octamethyl-30-[(1S)-1-methylpropyl]-3,6,9,15,18,21,25,28,31,34,42-undecaoxo-2-[[4-(trifluoromethyl)phenyl]methyl]spiro[1,4,7,10,16,19,22,26,29,32,35-undecazatricyclo[34.5.1.0^10,14]dotetracont-38-ene-17,1′-cyclopentane]-23-carboxamide] |  |  | A (a compound having 10 or more and less than 20 is denoted as A) | B (a compound having 3 or more and less than 10 is denoted as B) | 
5 | 44.4 |  | 0.46 | CCO[C@@H]1C[C@H]2C(=O)NC3(CCC3)C(=O)N(C)[C@@H](C(CC)CC)C(=O)N(C)[C@H](C(=O)N(C)C)CC(=O)N(C)[C@@H](CC(C)C)C(=O)N[C@@H]([C@@H](C)CC)C(=O)N(C)CC(=O)N(C)[C@H]3C/C=C\CCN(C3=O)[C@@H](CC3CCC(F)(F)CC3)C(=O)N(C)CC(=O)N[C@@H](CCc3cc(F)c(C(F)(F)F)c(F)c3)C(=O)N2C1 [PP1433] |  |  | AA (a compound having 20 or more is denoted as AA) | A (a compound having 10 or more and less than 20 is denoted as A) | 
6 | 18.7 |  | 0.074 | CCO[C@@H]1C[C@H]2C(=O)NC3(CCC3)C(=O)N(C)[C@@H](C3CCCC3)C(=O)N(C)[C@H](C(=O)N(C)C)CC(=O)N(C)[C@@H](CC3CC3)C(=O)N[C@@H]([C@@H](C)CC)C(=O)N(C)CC(=O)N(C)[C@H]3C/C=C\CCN(C3=O)[C@@H](Cc3ccc(C)cc3)C(=O)N(C)CC(=O)N[C@@H](CCc3cc(F)c(C(F)(F)F)c(F)c3)C(=O)N2C1 [PP1407, (2S,8S,12R,14S,20S,23S,27S,30S,36S,38Z)-20-cyclopentyl-27-(cyclopropylmethyl)-8-[2-[3,5-difluoro-4-(trifluoromethyl)phenyl]ethyl]-12-ethoxy-N,N,4,19,22,26,32,35-octamethyl-30-[(1S)-1-methylpropyl]-3,6,9,15,18,21,25,28,31,34,42-undecaoxo-2-(p-tolylmethyl)spiro[1,4,7,10,16,19,22,26,29,32,35-undecazatricyclo[34.5.1.0^10,14]dotetracont-38-ene-17,1′-cyclobutane]-23-carboxamide] |  |  | A (a compound having 10 or more and less than 20 is denoted as A) | A (a compound having 10 or more and less than 20 is denoted as A) | 
7 | 29.3 |  | 0.34 | CC[C@H](C)[C@@H]1NC(=O)[C@H](CC(C)C)N(C)C(=O)C[C@@H](C(=O)N2CCOCC2)N(C)C(=O)[C@H](C2CCCC2)N(C)C(=O)C2(CCC2)NC(=O)[C@@H]2CCCN2C(=O)[C@H](CCc2cc(F)c(C(F)(F)F)c(F)c2)NC(=O)CN(C)C(=O)[C@H](Cc2ccc(C(F)(F)F)cc2)N2C[C@H](C)[C@H](C)C[C@@H](C2=O)N(C)C(=O)[C@@H]2CCN2C1=O [PP1367] |  |  | A (a compound having 10 or more and less than 20 is denoted as A) | B (a compound having 3 or more and less than 10 is denoted as B) | 
8 | 4.5 | 0.062 |  | CCCOC[C@H]1C(=O)N[C@@H]([C@@H](C)CC)C(=O)N2CCC[C@H]2C(=O)N(C)[C@H]2C/C=C\CCN(C2=O)[C@@H](Cc2ccc(C)cc2)C(=O)N(C)CC(=O)N[C@@H](CCc2ccc(C(F)(F)F)c(OC)c2)C(=O)N2C[C@@H](C)C[C@H]2C(=O)N(C)C2(CCC2)C(=O)N(C)[C@@H](C2CCCC2)C(=O)N(C)[C@H](C(=O)N(C)C)CC(=O)N1C [PP2369] | A (a compound having 10 or more and less than 20 is denoted as A) | B (a compound having 3 or more and less than 10 is denoted as B) |  |  | 
9 |  | 0.17 |  | CCC[C@H]1C(=O)N[C@@H]([C@@H](C)CC)C(=O)N(C2CC2)CC(=O)N(C)[C@H]2C/C=C\CCN(C2=O)[C@@H](Cc2ccc(C)cc2)C(=O)N(C)CC(=O)N[C@@H](CCc2cc(F)c(C(F)(F)F)c(F)c2)C(=O)N2C[C@H](OCC)C[C@H]2C(=O)N(C)C2(CCC2)C(=O)N(C)[C@@H](C2CCCC2)C(=O)N(C)[C@H](C(=O)N2CCCC2)CC(=O)N1C [PP3113, (2S,8S,12R,14S,20S,23S,27S,30S,36S,38Z)-20-cyclopentyl-32-cyclopropyl-8-[2-[3,5-difluoro-4-(trifluoromethyl)phenyl]ethyl]-12-ethoxy-4,16,19,22,26,35-hexamethyl-30-[(1S)-1-methylpropyl]-27-propyl-2-(p-tolylmethyl)-23-(pyrrolidine-1-carbonyl)spiro[1,4,7,10,16,19,22,26,29,32,35-undecazatricyclo[34.5.1.0^10,14]dotetracont-38-ene-17,1′-cyclobutane]-3,6,9,15,18,21,25,28,31,34,42-undecone] | A (a compound having 10 or more and less than 20 is denoted as A) | A (a compound having 10 or more and less than 20 is denoted as A) |  |  | Kd ([1]; SPR, Single Cycle Kinetics, 1:1 binding model, read-out: KD value with respect to GDP-bound KRAS wild-type protein): 0.17 nM; ratio of the KD value with respect to GDP-bound NRAS wild-type protein to the KD value with respect to KRAS ([2]; SPR, KD(NRAS)/KD(KRAS)): A (a compound having 10 or more and less than 20 is denoted as A); ratio of the KD value with respect to GDP-bound HRAS wild-type protein to the KD value with respect to KRAS ([3]; SPR, KD(HRAS)/KD(KRAS)): A (a compound having 10 or more and less than 20 is denoted as A); IC50 ([4]; read-out: NCI-H441 cell proliferation inhibitory activity, 50% proliferation inhibitory concentration (IC50 value), NCI-H441, four days, CellTiter-Glo): 6.1 nM
10 | 29.8 |  | 0.17 | CC[C@H](C)[C@@H]1NC(=O)[C@H](CC)N(C)C(=O)C[C@@H](C(=O)N2CCOCC2)N(C)C(=O)[C@H](C2CCCC2)N(C)C(=O)C2(CCCC2)NC(=O)[C@@H]2CCCN2C(=O)[C@H](CCc2ccc(C(F)(F)F)c(Cl)c2)NC(=O)CN(C)C(=O)[C@H](Cc2ccc(C(F)(F)F)cc2)N2C[C@H](C)CC[C@@H](C2=O)N(C)C(=O)CN(C)C1=O [PP1337] |  |  | B (a compound having 3 or more and less than 10 is denoted as B) | B (a compound having 3 or more and less than 10 is denoted as B) | 

Row | Structure (SMILES) | IC50 [4] [nM] | Kd [1, 6] [nM] | Kd [1, 7] [nM] | NRAS/KRAS (ratio of KD value for NRAS to KD value for KRAS) ([2]; SPR) | HRAS/KRAS (ratio of KD value for HRAS to KD value for KRAS) ([3]; SPR) | NRAS/KRAS (ratio of KD value for NRAS to KD value for KRAS) ([2]; SPR, KD ratio class) | HRAS/KRAS (ratio of KD value for HRAS to KD value for KRAS) ([3]; SPR, KD ratio class) | further results
11 | CC[C@H](C)[C@@H]1NC(=O)[C@H](COC)N(C)C(=O)C[C@@H](C(=O)N2CCCCC2)N(C)C(=O)[C@H](C2CCCC2)N(C)C(=O)C2(CC(C)(C)C2)NC(=O)[C@@H]2C[C@@H](OC3CCC3)CN2C(=O)[C@H](CCc2cc(F)c(C(F)(F)F)c(F)c2)NC(=O)CN(C)C(=O)[C@H](Cc2ccc(C(F)(F)F)cc2)N2CC/C=C\C[C@@H](C2=O)N(C)C(=O)CN(C)C1=O [PP2664] | 19.8 |  |  |  |  |  |  | Kd [1, 5]: 0.37 nM; NRAS/KRAS (ratio of KD value with respect to GDP-bound NRAS wild-type protein to KD value with respect to KRAS) [2]: A (a compound having 10 or more and less than 20 is denoted as A); HRAS/KRAS (ratio of KD value with respect to GDP-bound HRAS wild-type protein to KD value with respect to KRAS) [3]: B (a compound having 3 or more and less than 10 is denoted as B)
